{
  "source": "paper PMC10504495",
  "about": "(iScience, 2023)",
  "origin": "cited, not measured here",
  "key": {"[1]": {"tested_on": "pan-Kla", "settings": "cells treated with nicotinamide; cited from earlier work", "excerpt": "(§1) Histone deacetylases (HDACs), including HDACs and Sirtuin family proteins, are well studied PTM erasers that regulate gene transcription. Recently, Moreno-Yruela et al. discovered that class I HDACs (HDAC1-3), especially HDAC3, are effective lactylation erasers.[5] […] The authors also treated cells with HDAC inhibitors (butyrate, trichostatin A, and apicidin) and a Sirtuin pan-inhibitor (nicotinamide) to compare the intracellular delactylation activities between HDACs and Sirtu ..."}, "[2]": {"tested_on": "pan-Kac", "settings": "cells treated with nicotinamide; cited from earlier work", "excerpt": "as §1"}},
  "data": [
    {"smiles": "NC(=O)c1cccnc1", "note": "[nicotinamide]", "values": [
      {"measurement": "pan-Kla level change", "setting": "[1]", "result": "unable to induce Sirtuin-regulated pan-Kla increasement"},
      {"measurement": "pan-Kac level change", "setting": "[2]", "result": "unchanged"}
    ]}
  ]
}
